Data: EPA's ToxValDB 9.5 (doi:10.2903/j.efsa.2009.193r)
In brackets after ≈: the same amount, converted by molar mass.

What was measured:
[1] = test system: Rattus norvegicus
[2] = test system: Tagia sp.; conditions: acute; duration: 14 days; mortality
[3] = test system: Anas platyrhynchos; conditions: short-term; oral; feed; mortality
[4] = test system: Apis mellifera; conditions: acute; duration: 48 hours; dermal; mortality
[5] = test system: Folsomia candida; conditions: chronic/long-term; duration: 28 days; mortality
[6] = test system: Coturnix japonica
[7] = test system: Lepomis macrochirus; conditions: acute; duration: 96 hours; mortality
[8] = test system: Aphidius rhopalosiphi; test: LR50; higher = less toxic; conditions: not reported; mortality

`[O-][n+]1nc(-n2ccnc2)nc2ccc(Cl)cc21` [Triazoxide] was tested, and the LD50 ([1]; acute, oral, mortality) was 98 mg/kg-day, the LOAEL ([1]; chronic, duration: 2 years, oral, diet, hematological) was 0.05 mg/kg-day and the NOAEL ([1]; reproduction developmental, organ weight) was 0.11 mg/kg-day. For the same molecule, the NOAEL ([1]; reproduction developmental, reproduction) was 2.04 mg/kg-day, the NOAEL ([1]; short-term, duration: 28 days, oral, hematological) was 1.5 mg/kg-day and the NOAEL ([1]; subchronic, duration: 90 days, oral, hematological) was 0.21 mg/kg-day. The LC50 [2] was over 1000 mg/kg, the LD50 [3] was 268 mg/kg-day and the LD50 [4] was over 200 µg/piece. For the same molecule, the NOEC [5] was 500 mg/kg, the LD50 ([6]; acute, oral, mortality) was 90 mg/kg-day and the NOEC ([6]; reproduction developmental, duration: 6 weeks) was 11.7 mg/kg-day. The LC50 [7] was 0.077 µg/mL (≈ 0.311 µM) and the LR50 [8] was over 5.13 g/ha.
